Reference: ChEMBL document CHEMBL1201862, “PubChem BioAssay data set” (2004)
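Following 48 hours of exposure in 96-well plates, responses at five concentrations were used to interpolate endpoints linearly. The concentration for 50% growth inhibition is given as GI50.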 The source made the active and inactive calls. Cut-off read from the data, not from the text of the source: active = GI50 up to about 1.1 µM and inactive = higher. *1 amine or outer side, *2 acyl side, *3 side chain or, on linkers, in order; H or OH if unused. Where a SMILES comes first, the peptide text is derived from it. Non-standard residues stand in square brackets, D forms with d. Residues, ends and D or L forms follow the SMILES beside them. [ ]: non-standard residue; d: D form. The star is where a group is joined. ξ: configuration not given here. *: point of attachment. X30 = COC1=CC(=O)N(C(=O)[C@@H](O*)C(C)C)[C@H]1Cc1ccccc1; X43 = CCC(=O)CC(O)CC(C)CC(N[*:1])C(=O)[*:2]; ξLeu(3ξ-OH) = CC(C)C(O)C(N)C(=O)O; ξPro(4ξ-Me) = CC1CNC(C(=O)O)C1; NMeL = CN[C@@H](CC(C)C)C(=O)O; X42 = CCC(C)/C=C/C(=O)*; Cbz = O=C(OCc1ccccc1)*; Aib = CC(C)(N)C(=O)O; X44 = CC(CN(C)C)N*; βAla = NCCC(=O)O

How the values were obtained:
Assay in all cases: inhibition of tumour cell growth, NCI panel, 48 h
[1] = tested on: SK-OV-3
[2] = tested on: UACC-62
[3] = tested on: M14
[4] = tested on: SNB-75
[5] = tested on: MDA-MB-435
[6] = tested on: A498
[7] = tested on: TK-10
[8] = tested on: T47D
[9] = tested on: SF-268
[10] = tested on: MCF7
[11] = tested on: RXF 393
[12] = tested on: CCRF-CEM
[13] = tested on: OVCAR-5
[14] = tested on: COLO 205
[15] = tested on: HCT-116
[16] = tested on: K562
[17] = tested on: CAKI-1
[18] = tested on: HT-29
[19] = tested on: NCI-H23
[20] = tested on: 786-0

Row | SMILES | GI50 [1] | GI50 [2] | GI50 [3] | GI50 [4] | GI50 [5] | GI50 [6] | GI50 [7] | GI50 [8] | GI50 [9] | GI50 [10] | GI50 [11] | GI50 [12] | GI50 [13] | GI50 [14] | GI50 [15] | GI50 [16] | GI50 [17] | GI50 [18] | GI50 [19] | GI50 [20]
1 | CN(C)CCn1c(=O)c2ccc(NCCCN(C)CCCNc3ccc4c(=O)n(CCN(C)C)c(=O)n5c6ccccc6c(=O)c3c45)c3c(=O)c4ccccc4n(c1=O)c23 | 0.101 µM (active) | 0.151 µM (active) | 0.167 µM (active) | < 0.0117 µM (active) | < 0.0151 µM (active) | 0.0571 µM (active) | 0.0593 µM (active) | 0.54 µM (active) | 0.258 µM (active) | < 0.01 µM (active) | < 0.0149 µM (active) | < 0.01 µM (active) | 0.145 µM (active) | < 0.01 µM (active) | < 0.01 µM (active) | < 0.01 µM (active) | 0.0172 µM (active) | < 0.01 µM (active) | < 0.01 µM (active) | < 0.01 µM (active)
2 | COc1ccc(O)c(/C=N/NC(=S)N2CCCCC2)c1 | 2.16 µM (inactive) | 2.54 µM (inactive) | 0.592 µM (active) | 10.5 µM (inactive) | 6.07 µM (inactive) | 12.1 µM (inactive) | 3.61 µM (inactive) | 6.71 µM (inactive) | 0.948 µM (active) | 7.96 µM (inactive) | 7.73 µM (inactive) | 0.569 µM (active) | 5.9 µM (inactive) | 2.98 µM (inactive) | 2.3 µM (inactive) | 3.05 µM (inactive) | 2.72 µM (inactive) | 8.17 µM (inactive) | 2.15 µM (inactive) | 1.15 µM (inactive)
3 | CC12NC(=C(C#N)C#N)C(C#N)=C3NC(N)=C(C#N)C(=C31)Oc1ccccc12 (stereo not given) | 75 µM (inactive) | 15 µM (inactive) | > 44.4 µM (inactive) | > 57.1 µM (inactive) | > 30.1 µM (inactive) | > 30.9 µM (inactive) | > 31 µM (inactive) | > 79.1 µM (inactive) | 10.4 µM (inactive) | > 35.6 µM (inactive) | 2.53 µM (inactive) | > 29 µM (inactive) | 47.8 µM (inactive) | 4.71 µM (inactive) | 4.53 µM (inactive) | > 43.2 µM (inactive) | > 29.4 µM (inactive) | 7.06 µM (inactive) | 6.85 µM (inactive) | 18.5 µM (inactive)
4 | CC(NNC(=O)c1ccncc1)c1ccccc1 (stereo not given) | > 100 µM (inactive) | > 100 µM (inactive) | > 100 µM (inactive) | > 100 µM (inactive) | > 100 µM (inactive) | > 100 µM (inactive) | > 100 µM (inactive) | > 100 µM (inactive) | > 100 µM (inactive) | > 100 µM (inactive) | > 100 µM (inactive) | > 100 µM (inactive) | > 100 µM (inactive) | > 100 µM (inactive) | > 100 µM (inactive) | > 100 µM (inactive) | > 100 µM (inactive) | > 100 µM (inactive) | > 100 µM (inactive) | > 100 µM (inactive)
5 | O/N=C1\Nc2ccccc2OCc2cc(Br)c(Br)cc2COc2ccccc2N\C1=N/O | 17.2 µM (inactive) | 15.3 µM (inactive) | 21.2 µM (inactive) | 20.2 µM (inactive) | 14.8 µM (inactive) | 17.5 µM (inactive) | 25 µM (inactive) | 10.9 µM (inactive) | 8.91 µM (inactive) | 6.81 µM (inactive) | 16.6 µM (inactive) | 4.98 µM (inactive) | 17.9 µM (inactive) | 7.08 µM (inactive) | 6.12 µM (inactive) | 4.85 µM (inactive) | 12.9 µM (inactive) | 7.85 µM (inactive) | 13.8 µM (inactive) | 10 µM (inactive)
6 | CCOP(=O)(OCC)C(Cc1cn(S(=O)(=O)c2ccc(C)cc2)cn1)C(=O)O (stereo not given) | > 100 µM (inactive) | > 100 µM (inactive) | > 100 µM (inactive) | > 100 µM (inactive) | > 100 µM (inactive) | > 100 µM (inactive) | > 100 µM (inactive) | > 100 µM (inactive) | > 100 µM (inactive) | > 100 µM (inactive) | > 100 µM (inactive) | > 100 µM (inactive) | > 100 µM (inactive) | > 100 µM (inactive) | > 100 µM (inactive) | > 100 µM (inactive) | > 100 µM (inactive) | > 100 µM (inactive) | > 100 µM (inactive) | > 100 µM (inactive)
7 | Cc1cc(O)nc(NN2C(Cl)C(=O)C2c2ccc(Cl)cc2)n1 (stereo not given) | 41.8 µM (inactive) | 16.7 µM (inactive) | 13.4 µM (inactive) | 17.4 µM (inactive) | 23.4 µM (inactive) | 18.2 µM (inactive) | 19.8 µM (inactive) | 16.6 µM (inactive) | 19.8 µM (inactive) | 12.8 µM (inactive) | 17.4 µM (inactive) | 1.87 µM (inactive) | 40 µM (inactive) | 17.2 µM (inactive) | 11.3 µM (inactive) | 2.88 µM (inactive) | 15.7 µM (inactive) | 18 µM (inactive) | 15.8 µM (inactive) | 15.6 µM (inactive)
8 | C=CCOc1ccc(N)c([N+](=O)[O-])c1 | > 100 µM (inactive) | > 100 µM (inactive) | > 100 µM (inactive) | 89.3 µM (inactive) | > 100 µM (inactive) | 33.3 µM (inactive) | > 100 µM (inactive) | > 100 µM (inactive) | > 100 µM (inactive) | > 100 µM (inactive) | > 100 µM (inactive) | > 100 µM (inactive) | > 100 µM (inactive) | > 100 µM (inactive) | > 100 µM (inactive) | > 100 µM (inactive) | > 100 µM (inactive) | > 100 µM (inactive) | > 100 µM (inactive) | > 100 µM (inactive)
9 | NCCCCN(CCCN)C(=O)c1ccccc1 | > 100 µM (inactive) | > 100 µM (inactive) | > 100 µM (inactive) | > 100 µM (inactive) | > 100 µM (inactive) | > 100 µM (inactive) | > 100 µM (inactive) | > 100 µM (inactive) | > 100 µM (inactive) | > 100 µM (inactive) | > 100 µM (inactive) | > 100 µM (inactive) | > 100 µM (inactive) | > 100 µM (inactive) | > 100 µM (inactive) | > 100 µM (inactive) | > 100 µM (inactive) | > 100 µM (inactive) | > 100 µM (inactive) | > 100 µM (inactive)
10 | COC1=CC(=O)N(C(=O)[C@@H](OC(=O)[C@@H]2CCCN2C(=O)[C@@H]2CCCN2C(=O)[C@H](CC(C)C)N(C)C(=O)[C@@H](NC(=O)[C@@H](NC(=O)OCc2ccccc2)C(C)C)C(C)C)C(C)C)[C@H]1Cc1ccccc1 (Cbz-VV[NMeL]PP-X30) | 31.3 µM (inactive) | 48.1 µM (inactive) | 70.1 µM (inactive) | 2.37 µM (inactive) | > 100 µM (inactive) | 19.6 µM (inactive) | 64.7 µM (inactive) | 68.2 µM (inactive) | > 100 µM (inactive) | 56 µM (inactive) | 14.2 µM (inactive) | 35.3 µM (inactive) | > 100 µM (inactive) | > 100 µM (inactive) | 44.6 µM (inactive) | > 100 µM (inactive) | > 100 µM (inactive) | > 100 µM (inactive) | > 100 µM (inactive) | 23.3 µM (inactive)
11 | CCC(=O)CC(O)CC(C)CC(NC(=O)C1CC(C)CN1C(=O)/C=C/C(C)CC)C(=O)NC(C(=O)NC(C)(C)C(=O)NC(CC(C)C)C(=O)NC(CC(C)C)C(=O)NC(C)(C)C(=O)NC(C)(C)C(=O)NCCC(=O)NC(C)CN(C)C)C(O)C(C)C (stereo not given) (X42-[ξPro(4ξ-Me)][X43][ξLeu(3ξ-OH)][Aib]LL[Aib][Aib][βAla]-X44; configuration not given here) | 0.341 µM (active) | 0.268 µM (active) | 0.615 µM (active) | 0.0165 µM (active) | 0.0745 µM (active) | 0.495 µM (active) | 0.345 µM (active) | < 0.005 µM (active) | 0.0526 µM (active) | < 0.005 µM (active) | 0.38 µM (active) | < 0.005 µM (active) | 0.313 µM (active) | 0.0131 µM (active) | 0.0235 µM (active) | 0.0469 µM (active) | 1.19 µM (inactive) | 0.0728 µM (active) | < 0.005 µM (active) | 1.52 µM (inactive)
12 | CN(CC(N)=O)C(=O)N(CCCl)N=O [SARCNU] | > 83.9 µM (inactive) | > 56.4 µM (inactive) | > 100 µM (inactive) | 38.6 µM (inactive) | > 100 µM (inactive) | > 100 µM (inactive) | > 100 µM (inactive) | > 100 µM (inactive) | 27.2 µM (inactive) | > 100 µM (inactive) | > 100 µM (inactive) | > 81.8 µM (inactive) | > 100 µM (inactive) | > 100 µM (inactive) | > 100 µM (inactive) | > 100 µM (inactive) | > 100 µM (inactive) | > 100 µM (inactive) | > 100 µM (inactive) | 98.4 µM (inactive)
